According to paper PMC3431822, “Enzymatic Properties and Mutational Studies of Chalcone Synthase from Physcomitrella patens” (International Journal of Molecular Sciences, 2012):

Target: T1, PpCHS (Physcomitrium patens, UniProt Q2VAZ3)
T1 construct: gene PHYPA_029015; homodimer ~120 kDa
Assay: HPLC of pyrone product, UV […] nm
Assay type: biochemical
Conditions: hexanoyl-CoA co-substrate, 20 mM phosphate pH 7, 30 °C, 2 h; extender substrate; Trx-fusion enzyme

T1 sequence (Q2VAZ3 entry or part of it): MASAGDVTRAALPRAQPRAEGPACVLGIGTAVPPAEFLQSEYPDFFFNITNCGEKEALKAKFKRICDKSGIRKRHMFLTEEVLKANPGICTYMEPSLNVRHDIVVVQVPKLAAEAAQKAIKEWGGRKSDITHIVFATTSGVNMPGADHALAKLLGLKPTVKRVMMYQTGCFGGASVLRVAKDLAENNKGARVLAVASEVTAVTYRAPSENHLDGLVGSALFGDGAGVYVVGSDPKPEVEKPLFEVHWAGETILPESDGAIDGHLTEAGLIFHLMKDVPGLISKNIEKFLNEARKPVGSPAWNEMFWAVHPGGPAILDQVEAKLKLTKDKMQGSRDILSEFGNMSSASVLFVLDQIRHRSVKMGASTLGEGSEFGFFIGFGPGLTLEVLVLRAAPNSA

## CC(C)(COP(=O)(O)OP(=O)(O)OC[C@H]1O[C@@H](n2cnc3c(N)ncnc32)[C@H](O)[C@@H]1OP(=O)(O)O)[C@@H](O)C(=O)NCCC(=O)NCCSC(=O)CC(=O)O [malonyl-CoA]
  HPLC of pyrone product, UV 280 nm: HPLC Analysis of the reaction of hexanoyl-CoA and malonyl-CoA with PpCHS
